Tested on: human embryonic stem cells
Experiment: Metabolite profiling (LC/ESI-TOF mass spectrometry) of extracellular media of hESCs treated with alcohol
Assay type: cell-based
Source text: Binned masses were annotated in silico by querying the neutral masses in several different databases. These databases included Metlin, Biological Magnetic Resonance Data Bank (BMRB), NIST Chemistry WebBook, and the Human Metabolome Database. A mass was considered identified when its neutral mass was within 10 ppm of a known compound annotated in one of the databases listed above.

## CCO [ETOH]
ETOH 0.1, 4 D
  Fold: Unknown, mass 646.7084, RT 5.903429: −1.271 fold
  Fold: Unknown, mass 661.3846, RT 26.7452: 1.295 fold
  Fold: Unknown, mass 693.4124, RT 31.11764: 2.318 fold
  Fold: Unknown, mass 699.9225, RT 33.70266: 1.719 fold
  Fold: Unknown, mass 707.3928, RT 34.62439: 2.137 fold
  Fold: Unknown, mass 708.9387, RT 33.73428: 2.16 fold
  Fold: Unknown, mass 730.4494, RT 33.89008: 2.614 fold
  Fold: Unknown, mass 731.0954, RT 47.76987: −2.776 fold
  Fold: Unknown, mass 732.007, RT 5.918027: 1.795 fold
  Fold: Unknown, mass 751.4193, RT 35.028: 1.87 fold
  Fold: Unknown, mass 752.4629, RT 34.12668: 2.067 fold
  Fold: Unknown, mass 774.4767, RT 34.33545: 2.104 fold
  Fold: Unknown, mass 774.5055, RT 89.29926: −2.401 fold
  Fold: Unknown, mass 780.241, RT 5.886782: −1.314 fold
  Fold: Unknown, mass 796.4891, RT 34.52749: 1.927 fold
  Fold: Unknown, mass 796.9917, RT 34.60124: 1.818 fold
  Fold: Unknown, mass 820.8181, RT 4.613879: −1.47 fold
  Fold: Unknown, mass 888.8041, RT 5.259716: −1.458 fold
  Fold: Unknown, mass 921.0025, RT 5.399211: 1.678 fold
  Fold: Unknown, mass 1008.072, RT 3.705141: 1.304 fold
  Fold: Unknown, mass 1038.786, RT 5.177162: 1.678 fold
  Fold: glucuronide, mass 471.1928, RT 30.37291: 2.001 fold
ETOH 0.1, 24 H
  Fold: 3,4-Dihydroxybutyric acid, mass 129.0452, RT 16.73904: 1.502 fold
  Fold: 3-Methylindole, mass 131.0746, RT 22.22892: −1.857 fold
  Fold: (+/−)-2-(4′-Isobutylphenyl)propionitrile, mass 187.1343, RT 22.17997: 1.488 fold
  Fold: GABA analogue, mass 171.1244, RT 26.70635: 2.376 fold
  Fold: Malonylcarnitine, mass 229.0949, RT 24.52067: −2.33 fold
  Fold: Oxidized glutathione (Glutathione disulfide; GSSG; Oxiglutatione), mass 612.1509, RT 8.056862: −1.474 fold
  Fold: Unknown, mass 130.9541, RT 88.64043: 1.632 fold
  Fold: Unknown, mass 148.0052, RT 3.958833: −1.948 fold
  Fold: Unknown, mass 266.1613, RT 64.66999: −1.519 fold
  Fold: Unknown, mass 271.9364, RT 4.86619: 2.629 fold
  Fold: Unknown, mass 272.16, RT 43.99398: 1.93 fold
  Fold: Unknown, mass 285.2285, RT 63.00428: 4.003 fold
  Fold: Unknown, mass 294.0957, RT 6.160071: 1.269 fold
  Fold: Unknown, mass 296.2308, RT 71.55535: 3.545 fold
  Fold: Unknown, mass 300.1656, RT 17.18696: 1.549 fold
  Fold: Unknown, mass 337.2012, RT 8.542672: 1.402 fold
  Fold: Unknown, mass 362.2787, RT 83.72506: 2.82 fold
  Fold: Unknown, mass 379.1771, RT 20.76168: −1.723 fold
  Fold: Unknown, mass 387.0812, RT 19.97914: 1.739 fold
  Fold: Unknown, mass 388.1815, RT 17.53242: −1.449 fold
  Fold: Unknown, mass 393.1889, RT 15.90129: −1.431 fold
  Fold: Unknown, mass 396.1687, RT 6.259963: 1.718 fold
  Fold: Unknown, mass 437.2042, RT 32.18393: 24.53 fold
  Fold: Unknown, mass 462.2217, RT 22.95657: −1.986 fold
  Fold: Unknown, mass 464.225, RT 25.3287: −1.631 fold
  Fold: Unknown, mass 482.3062, RT 72.7735: −1.959 fold
  Fold: Unknown, mass 485.2069, RT 6.676207: −2.014 fold
  Fold: Unknown, mass 521.9924, RT 34.35986: −1.446 fold
  Fold: Unknown, mass 577.2825, RT 16.90923: 1.728 fold
  Fold: Unknown, mass 677.9101, RT 33.48766: −2.221 fold
  Fold: Unknown, mass 695.4286, RT 28.2045: −32.9384 fold
  Fold: Unknown, mass 707.4296, RT 56.18269: 1.49 fold
  Fold: Unknown, mass 711.8344, RT 4.826824: −3.021 fold
  Fold: Unknown, mass 765.5211, RT 69.32865: 1.873 fold
  Fold: Unknown, mass 909.5934, RT 8.502051: 2.274 fold
  Fold: Unknown, mass 913.8074, RT 5.217833: −1.861 fold
  Fold: Unknown, mass 994.0917, RT 3.646902: 1.442 fold
ETOH 0.3, 4 D
  Fold: 3,4-Dihydroxybutyric acid, mass 120.0436, RT 3.767232: 1.936 fold
  Fold: 3-(2,5-Dimethoxy phenylpropionic acid, mass 210.0922, RT 36.18938): 1.85 fold
  Fold: 3-Methylindole, mass 131.0746, RT 22.22892: 2.502 fold
  Fold: 5-Ethyl-5-(1-methyl-3-carboxypropyl)barbituric acid, mass 256.1066, RT 18.84552: −2.141 fold
  Fold: 5-Methoxytryptophan, mass 234.1253, RT 53.26863: −1.624 fold
  Fold: (+)-Eudesmin, mass 386.1724, RT 51.65871: 4.851 fold
  Fold: Amino-4methylthiobutyric acid, mass 149.0511, RT 7.479235: −1.305 fold
  Fold: Benzenemethanol, 2-(2-aminopropoxy)-3-methyl- / a-[1-(ethylamino)ethyl]-p-hydroxy-Benzyl alcohol, mass 195.124, RT 31.19917: −1.86 fold
  Fold: Homogentisic acid / Vanillic acid, mass 168.0434, RT 19.18355: 1.282 fold
  Fold: L-Histidine / 4-propionic acid, mass 155.0681, RT 5.559732: 1.638 fold
  Fold: Malonylcarnitine, mass 229.0949, RT 24.52067: −1.74 fold
  Fold: N-Methyl-2-pyrrolidinone, mass 99.0689, RT 15.48433: 1.338 fold
  Fold: Pantothenol / dimethylbutanamide;, mass 205.1304, RT 6.747279: −1.339 fold
  Fold: Phenanthrene-9,10-oxide / 9-Hydroxyphenanthrene; 9-Phenanthrol, mass 194.073, RT 5.935143: −1.4 fold
  Fold: Thiosulfate, mass 111.9839, RT 4.032816: −8.676 fold
  Fold: Unknown, mass 120.2112, RT 13.40565: 3.9 fold
  Fold: Unknown, mass 131.076, RT 14.35336: 4.05 fold
  Fold: Unknown, mass 162.0662, RT 44.88033: 1.799 fold
  Fold: Unknown, mass 201.1709, RT 19.48063: −2.979 fold
  Fold: Unknown, mass 218.0762, RT 6.62669: −1.771 fold
  Fold: Unknown, mass 229.1457, RT 55.50731: −1.533 fold
  Fold: Unknown, mass 243.11, RT 27.39631: −1.495 fold
  Fold: Unknown, mass 247.1049, RT 6.626769: −4.476 fold
  Fold: Unknown, mass 247.1408, RT 9.0276: −2.751 fold
  Fold: Unknown, mass 267.2543, RT 40.75868: −1.6481 fold
